Test results from US20210046096A1, “Pharmaceutical Composition of Brigatinib” (Sandoz AG, priority 2018, published 2021).
Like-named read-outs stand apart in the source and are kept apart here.

Columns and labels:
[1] = cited from earlier work
[2] = Moisture stability at accelerated stress conditions, analysed by PXRD; format: physicochemical; conditions: open storage, physical form by PXRD
Experimental: Powder X-ray diffraction was performed with a PANalytical X'Pert PRO diffractometer equipped with a theta/theta coupled goniometer in transmission geometry, Cu-Kalpha1,2 radiation (wavelength 0.15419 nm) with a focusing mirror and a solid state PIXcel detector. Diffractograms were recorded at a tube voltage of 45 kV and a tube current of 40 mA, applying a stepsize of 0.013° 2-Theta with 40 s per step (255 channels) in the angular range of 2° to 40° 2-Theta at ambient conditions.
Moisture stability at accelerated stress conditions was performed in a Memmert constant climate chamber HPP110. 30-50 mg of a given solid composition prepared according to the Examples and Comparative Example herein were exposed to an atmosphere having a relative humidity of 75±0.5% and a temperature of 40±0.5° C. for a period of time as indicated in Tables 1-3 below and analyzed via PXRD as described above.
Brigatinib (1.50 g, e.g. prepared according to the procedures disclosed in WO 2016/065028 A1, part V) was dissolved in 75 mL of acetonitrile/water solution (volume ratio 50:50). The solution was filtered. The homogeneous solution was frozen in a bath of liquid nitrogen and lyophilized at a pressure of from 0.02 to 1.0 mbar, yielding amorphous brigatinib, as confirmed by the PXRD depicted in FIG. 1. The obtained amorphous brigatinib was stored open under accelerated stability conditions (temperature: 40° C., relative humidity: 75%).
Brigatinib (about 100 mg, e.g. prepared according to the procedures disclosed in WO 2016/065028 A1, part V) and the organic polymer (about 100 mg) according to Table 2 were dissolved in 7 to 8 mL of acetonitrile/water solution (volume ratio 50:50). The homogeneous solution was frozen in a bath of liquid nitrogen and lyophilized at a pressure of from 0.02 to 1.0 mbar, yielding an amorphous solid dispersion of brigatinib. The so obtained solid dispersion was open stored under accelerated stability conditions (temperature: 40° C., relative humidity: 75%) for three weeks. […]

[3] = Stability in the amorphous state upon storage (PXRD), general statements; format: physicochemical; conditions: conditions not given, judged by PXRD
Text: The brigatinib in the context of the solid dispersion of the present invention is stable in the amorphous state upon storage, as judged by the absence of characteristic PXRD peaks after storage. […] Also in the context of solid dispersions with carriers such as polyvinylpyrrolidon PVP-40000 or Syloid® AL-1FP, amorphous brigatinib converts to crystalline brigatinib upon storage.

[4] = Thermogravimetric mass spectroscopy (TGMS) thermal stability; format: physicochemical; conditions: heated 25° C. to 250° C. at 10° C./min
Experimental: Thermogravimetric analysis (TGA) was performed on a Mettler Toledo TGA/DSC 1 instrument. Samples were heated in 100 μl aluminium pans closed with aluminium lids. Lids were automatically pierced at the beginning of the measurement. Samples were initially kept at 25° C. for 2.5 minutes and then heated from room temperature to 250° C. at a rate of 10° C./min. Nitrogen (purge rate 30 ml/min) was used as purge gas.
Mass spectrometry (MS) measurements, coupled with thermogravimetric analysis (TGA), were performed with a Pfeiffer GSD 320 ThermoStar Gas Analysis System. A part of the headspace was evacuated with a capillary placed near the TG sample pan, and mass fragments between 1-100 atomic mass units (amu) were analyzed simultaneously without further separation applying a secondary electron multiplier (SEM) for signal amplification.

[5] = as described in WO 2016/065028 A1

## COc1cc(N2CCC(N3CCN(C)CC3)CC2)ccc1Nc1ncc(Cl)c(Nc2ccccc2P(C)(C)=O)n1 [Form B, 5-chloro-N4-[2-(dimethylphosphoryl)phenyl]-N2-[2-methoxy-4-[4-(4-methylpiperazin-1-yl)piperidin-1-yl]phenyl]pyrimidine-2,4-diamine]
[1]; [5]
  Hygroscopicity: hydroscopic
  Relative humidity at which the form reversibly converts to hydrated crystalline forms C or D: above 30%
[1]; elevated temperature, WO 2016/065028 A1
  Temperature at which the form transforms to form A: above 150 °C

## COc1cc(N2CCC(N3CCN(C)CC3)CC2)ccc1Nc1ncc(Cl)c(Nc2ccccc2P(C)(C)=O)n1 [Brigatinib, 5-chloro-N4-[2-(dimethylphosphoryl)phenyl]-N2-[2-methoxy-4-[4-(4-methylpiperazin-1-yl)piperidin-1-yl]phenyl]pyrimidine-2,4-diamine]
[2]
  PXRD analysis after storage at 40° C. and 75% RH for 1 week: Form A
[2]; listed as neat amorphous brigatinib
  PXRD analysis after storage at 40° C. and 75% RH for 1 week: contained crystalline Form A
[2]; 3 weeks
  PXRD analysis after storage at 40° C. and 75% RH for 3 weeks: Form A
[3]
  Stability of the amorphous state upon storage: readily converts to crystalline form A of brigatinib upon storage for as short as one week only

## COc1cc(N2CCC(N3CCN(C)CC3)CC2)ccc1Nc1ncc(Cl)c(Nc2ccccc2P(C)(C)=O)n1 [brigatinib form A, 5-chloro-N4-[2-(dimethylphosphoryl)phenyl]-N2-[2-methoxy-4-[4-(4-methylpiperazin-1-yl)piperidin-1-yl]phenyl]pyrimidine-2,4-diamine]
[4]
  Temperature at which the chemistry of the sample changes (TGMS): about 100 °C
[1]; as described in WO 2016/065028 A1, listed as Form A
  Hygroscopicity: non-hygroscopic
